Measurements taken from patent publication US8252737B2, “Antimicrobial peptides and methods of use” (priority 2004, dated 2012).
In brackets after ≈: the same amount, converted by molar mass. Like-named read-outs stand apart in the source and are kept apart here. Marks after values point to notes of the source that are not given here.

Key:
gram-negative bacteria = experiment: MIC, microtiter dilution, Gram-negative bacteria (geometric mean of 6 strains); type: cell-based; conditions: geometric mean of MIC values from all 6 Gram-negative strains of Table 11
Procedure: (§1) The geometric mean MIC values from 6 microbial strains in this table were calculated to provide an overall evaluation of antimicrobial activity against gram-negative bacteria.
In Table 11, geometric mean MIC was calculated to provide an overall view of antimicrobial activity of the peptides against Gram-negative bacteria and was also used to calculate the therapeutic index.
(§2) Measurement of Antimicrobial Activity—Minimal inhibitory concentrations (MICs) were determined using a standard microtiter dilution method in LB (Luria-Bertani) no-salt medium (10 g of tryptone and 5 g of yeast extract per liter). Briefly, cells were grown overnight at 37° C. in LB and diluted in the same medium. […] Plates were incubated at 37° C. for 24 hours and MICs determined as the lowest peptide concentration that inhibited growth. Alternatively, minimal inhibitory concentrations were determined using a standard microtiter dilution method in a Mueller-Hinton (MH) medium. Briefly, cells were grown overnight at 37° C. in MH broth and diluted in the same medium. […] Plates were incubated at 37° C. for 24 hours and MICs determined as the lowest peptide concentration that inhibited growth. However, for MIC determination of Pseudomonas aeruginosa clinical isolates, brain heart infusion (BH1) medium was used instead of MH broth. In addition, the bacteria were diluted to a final inoculum of 1×10^6 colony-forming units/ml.

[1] = test system: Staphylococcus epidermidis
gram-positive bacteria = test system: gram-positive bacteria
Procedure: as §2

E. faecalis = test system: E. faecalis
Procedure: as §2

C. albicans = conditions: fungus
Procedure: as §2

human red blood cells = experiment: Hemolysis time study (0-8 hours, 8-500 μg/ml)
Procedure: The percent hemolysis of cells was determined spectrophotometrically by comparison with the complete hemolysis of cells in water.
[…] Peptide samples were diluted 2 fold in order to determine the concentration that produced no hemolysis. […] Hemoglobin release was determined spectrophotometrically at 562 nm. The hemolytic titer was the highest 2-fold dilution of the peptide that still caused release of hemoglobin from erythrocytes. The control for no release of hemoglobin was a sample of 1% erythrocytes without any peptide added. […] Peptide samples were diluted 2 fold in order to determine the concentration that produced no hemolysis. […] Hemoglobin release was determined spectrophotometrically at 570 nm. The hemolytic titer was the highest 2-fold dilution of the peptide that still caused release of hemoglobin from erythrocytes. The control for no release of hemoglobin was a sample of 1% erythrocytes without any peptide added.

[2] = Procedure: as §1, §2
P. aeruginosa H187 wt = test system: P. aeruginosa H187 wt
Procedure: as §1, §2

[3] = test system: E. coli (UB 1005 wt and DC2 abs); conditions: for MIC (μg/ml) E. coli C500 abs: antibiotic sensitive strain; for MIC (μg/ml) E. coli C498 wt: wild-type lab strain
Procedure: as §1, §2

S. typhimurium C610 abs = test system: S. typhimurium C610 abs
Procedure: as §1, §2

human erythrocytes = experiment: Hemolytic activity (MHC), Protocol B, 18 hours; conditions: for Hemolytic activity Fold: fold decrease in hemolytic activity compared to V681, 18 hours; for MHC (μg/ml) hRBC: maximal peptide concentration with no hemolysis after 18 hours
Procedure: In order to evaluate the biological activities of the D-enantiomeric peptides, namely D-NAL and D-NKD, the hemolytic activity of the peptides against human erythrocytes was determined as the maximal peptide concentration that produces no hemolysis after 18 hours of incubation at 37° C.
Measurement of Hemolytic Activity—Protocol A: Peptide samples were added to 1% human erythrocytes in phosphate buffered saline (0.08M NaCl; 0.043M Na2PO4; 0.011M KH2PO4) and reactions were incubated at 37° C. for 12 hours in microtiter plates. Peptide samples were diluted 2 fold in order to determine the concentration that produced no hemolysis. […] Hemoglobin release was determined spectrophotometrically at 562 nm. The hemolytic titer was the highest 2-fold dilution of the peptide that still caused release of hemoglobin from erythrocytes. The control for no release of hemoglobin was a sample of 1% erythrocytes without any peptide added. […] Peptide samples were diluted 2 fold in order to determine the concentration that produced no hemolysis. […] Hemoglobin release was determined spectrophotometrically at 570 nm. The hemolytic titer was the highest 2-fold dilution of the peptide that still caused release of hemoglobin from erythrocytes. The control for no release of hemoglobin was a sample of 1% erythrocytes without any peptide added.

[4] = test system: Pseudomonas aeruginosa strains; conditions: for MIC GM: geometric mean of six Pseudomonas aeruginosa clinical isolates; for MIC CP 204: strain CP 204; for MIC M 2: strain M 2; for MIC PA 14: strain PA 14; for MIC PAK: strain PAK; for MIC PAO 1: strain PAO 1; for MIC WR 5: strain WR 5
Procedure: Pseudomonas aeruginosa strains used in this study are a diverse group of clinical isolates from different places in the world. […] The geometric mean MIC values from six Pseudomonas aeruginosa strains were calculated to provide an overall evaluation of antimicrobial activity of these peptides against Pseudomonas aeruginosa. Fold improvement was calculated by comparing the geometric mean MIC value of each peptide to that of the parent peptide V681.
as §2
For the Leu-substituted peptides, the hemolytic activity against human erythrocytes was determined as the maximal peptide concentration that produces no hemolysis after 18 hours of incubation at 37° C. Antimicrobial activity of the peptides was determined on a diverse group of Pseudomonas aeruginosa clinical isolates. […] The geometric mean MIC values from six Pseudomonas strains in Table 14 were calculated to provide an overall evaluation of antimicrobial activity of the peptides with different hydrophobicities.

[5] = geometric mean of MIC values from all 6 gram-positive strains of Table 12
[6] = Salmonella typhimurium wild-type lab strain
[7] = Pseudomonas aeruginosa antibiotic sensitive strain
[8] = Pseudomonas aeruginosa wild-type lab strain
[9] = Salmonella typhimurium antibiotic sensitive strain
[10] = maximal peptide concentration producing no hemolysis after 18 hours, 37° C.

| Structure (SMILES) | MIC (μg/ml) GM (gram-negative bacteria) [µg/mL] | MIC (μg/ml) S. epidermidis C621 wt [1] [µg/mL] | MIC (μg/ml) GM (gram-positive bacteria; [5]) [µg/mL] | MIC (μg/ml) E. faecalis C625 wt (E. faecalis; wild type strain) [µg/mL] | MIC (μg/ml) C. albicans (C. albicans) [µg/mL] | MIC (μg/ml) St C587 wt [2, 6] [µg/mL] | MIC (μg/ml) Pa H188 abs (P. aeruginosa H187 wt; [7]) [µg/mL] | MIC (μg/ml) Pa H187 wt (P. aeruginosa H187 wt; [8]) [µg/mL] | MIC (μg/ml) E. coli C500 abs [3] [µg/mL] | MIC (μg/ml) E. coli C498 wt [3] [µg/mL] | MIC (μg/ml) St C610 abs (S. typhimurium C610 abs; [9]) [µg/mL] | Hemolytic activity Fold (human erythrocytes) | Hemolytic activity MHC (human erythrocytes; [10]) | MHC (μg/ml) hRBC (human erythrocytes; Table 11) | MHC (μg/ml) hRBC (human erythrocytes; Table 12) | MIC (μg/ml) C. xerosis C875 wt (Corynebacterium xerosis) [µg/mL] | MIC GM [4] [µg/mL] | MIC PAK [4] [µg/mL] | MIC PAO 1 [4] [µg/mL] | MIC (μg/ml) B. subtilis C971 wt (Bacillus subtilis) [µg/mL] | other results |
| --- | --- | --- | --- | --- | --- | --- | --- | --- | --- | --- | --- | --- | --- | --- | --- | --- | --- | --- | --- | --- | --- |
| CC[C@@H](C)[C@@H](NC(=O)[C@@H](C)NC(=O)[C@@H](CCCCN)NC(=O)[C@@H](CC(C)C)NC(=O)[C@@H](C)NC(=O)[C@H](NC(=O)[C@@H](Cc1c[nH]cn1)NC(=O)[C@@H](CC(C)C)NC(=O)[C@H](NC(=O)[C@H](NC(=O)[C@@H](CCCCN)NC(=O)[C@H](C)NC(=O)[C@@H](C)NC(=O)[C@@H](CO)NC(=O)[C@@H](CCCCN)NC(=O)[C@@H](Cc1ccccc1)NC(=O)[C@H](NC(=O)[C@@H](CCCCN)NC(=O)[C@@H](CC(C)C)NC(=O)[C@@H](Cc1ccccc1)NC(=O)[C@@H](CO)NC(=O)[C@@H](CCCCN)NC(=O)[C@@H](Cc1c[nH]c2ccccc12)NC(=O)[C@@H](CCCCN)NC(C)=O)[C@H](C)O)[C@H](C)O)C(C)C)[C@H](C)O)C(=O)N[C@H](CO)C(=O)N[C@H](CO)C(N)=O [D-NAL] | 3.9 (≈ 1.33 µM) | 1.6 (≈ 0.545 µM) | 2.8 (≈ 0.954 µM) | 12.5 (≈ 4.26 µM) | 12.5 (≈ 4.26 µM) | 12.5 (≈ 4.26 µM) | 3.1 (≈ 1.06 µM) | 3.1 (≈ 1.06 µM) | 3.1 (≈ 1.06 µM) | 3.1 (≈ 1.06 µM) | 3.1 (≈ 1.06 µM) | 4 | 31.3 µg/mL | 31.3 µg/mL | 31.3 µg/mL | 1.6 (≈ 0.545 µM) | 13.9 (≈ 4.74 µM) | 31.3 (≈ 10.7 µM) | 7.8 (≈ 2.66 µM) | 1.6 (≈ 0.545 µM) | hemolysis of human red blood cells (human red blood cells; 500 μg/ml, after 1 hour incubation): approximately 40%; hemolysis of human red blood cells (human red blood cells; peptide concentration of 32 μg/ml): negligible hemolysis; MIC CP 204 [4]: 7.8 µg/mL (≈ 2.66 µM); MIC M 2 [4]: 15.6 µg/mL (≈ 5.32 µM); MIC PA 14 [4]: 7.8 µg/mL (≈ 2.66 µM); MIC WR 5 [4]: 31.3 µg/mL (≈ 10.7 µM); MIC (μg/ml) S. aureus 622 wt (Staphylococcus aureus): 3.1 µg/mL (≈ 1.06 µM); MIC (μg/ml) S. aureus 623 methR (Staphylococcus aureus): 3.1 µg/mL (≈ 1.06 µM) |
| CC[C@@H](C)[C@@H](NC(=O)[C@@H](C)NC(=O)[C@@H](CCCCN)NC(=O)[C@@H](CC(C)C)NC(=O)[C@@H](C)NC(=O)[C@H](NC(=O)[C@@H](Cc1c[nH]cn1)NC(=O)[C@@H](CC(C)C)NC(=O)[C@H](NC(=O)[C@H](NC(=O)[C@@H](CCCCN)NC(=O)[C@@H](CCCCN)NC(=O)[C@@H](C)NC(=O)[C@@H](CO)NC(=O)[C@@H](CCCCN)NC(=O)[C@@H](Cc1ccccc1)NC(=O)[C@H](NC(=O)[C@@H](CCCCN)NC(=O)[C@@H](CC(C)C)NC(=O)[C@@H](Cc1ccccc1)NC(=O)[C@@H](CO)NC(=O)[C@@H](CCCCN)NC(=O)[C@@H](Cc1c[nH]c2ccccc12)NC(=O)[C@@H](CCCCN)NC(C)=O)[C@H](C)O)[C@H](C)O)C(C)C)[C@H](C)O)C(=O)N[C@H](CO)C(=O)N[C@H](CO)C(N)=O [D-NKD] | 3.9 (≈ 1.3 µM) | 3.1 (≈ 1.04 µM) | 4.0 (≈ 1.34 µM) | 12.5 (≈ 4.18 µM) | 25.0 (≈ 8.36 µM) | 6.3 (≈ 2.11 µM) | 3.1 (≈ 1.04 µM) | 6.3 (≈ 2.11 µM) | 3.1 (≈ 1.04 µM) | 3.1 (≈ 1.04 µM) | 3.1 (≈ 1.04 µM) | 32 | 250.0^h μg/ml | 250.0^h μg/ml | 250.0^h μg/ml | 1.6 (≈ 0.535 µM) | 31.2 (≈ 10.4 µM) | 125.0 (≈ 41.8 µM) | 15.6 (≈ 5.22 µM) | 1.6 (≈ 0.535 µM) | MIC CP 204 [4]: 15.6 µg/mL (≈ 5.22 µM); MIC M 2 [4]: 31.3 µg/mL (≈ 10.5 µM); MIC PA 14 [4]: 15.6 µg/mL (≈ 5.22 µM); MIC WR 5 [4]: 62.5 µg/mL (≈ 20.9 µM); MIC (μg/ml) S. aureus 622 wt (Staphylococcus aureus): 6.3 µg/mL (≈ 2.11 µM); MIC (μg/ml) S. aureus 623 methR (Staphylococcus aureus): 6.3 µg/mL (≈ 2.11 µM) |
| CC[C@@H](C)[C@@H](NC(=O)[C@@H](C)NC(=O)[C@@H](CCCCN)NC(=O)[C@@H](CC(C)C)NC(=O)[C@@H](C)NC(=O)[C@H](NC(=O)[C@@H](Cc1c[nH]cn1)NC(=O)[C@@H](CC(C)C)NC(=O)[C@H](NC(=O)[C@H](NC(=O)[C@@H](CCCCN)NC(=O)[C@H](NC(=O)[C@@H](C)NC(=O)[C@@H](CO)NC(=O)[C@@H](CCCCN)NC(=O)[C@@H](Cc1ccccc1)NC(=O)[C@H](NC(=O)[C@@H](CCCCN)NC(=O)[C@@H](CC(C)C)NC(=O)[C@@H](Cc1ccccc1)NC(=O)[C@@H](CO)NC(=O)[C@@H](CCCCN)NC(=O)[C@@H](Cc1c[nH]c2ccccc12)NC(=O)[C@@H](CCCCN)NC(C)=O)[C@H](C)O)C(C)C)[C@H](C)O)C(C)C)[C@H](C)O)C(=O)N[C@H](CO)C(=O)N[C@H](CO)C(N)=O [D-V681] | 6.3 (≈ 2.13 µM) | 1.6 (≈ 0.54 µM) |  |  |  |  |  |  | 3.1 (≈ 1.05 µM) | 6.3 (≈ 2.13 µM) |  |  |  | 7.8 µg/mL | 7.8 µg/mL | 3.1 (≈ 1.05 µM) |  | 31.3 (≈ 10.6 µM) | 15.6 (≈ 5.27 µM) | 1.6 (≈ 0.54 µM) | MIC (μg/ml) GM (gram-positive bacteria): 3.5 µg/mL (≈ 1.18 µM); MIC (μg/ml) E. faecalis C625 wt (E. faecalis): 6.3 µg/mL (≈ 2.13 µM); MIC (μg/ml) St C587 wt ([2]; C610 abs): 12.5 µg/mL (≈ 4.22 µM); MIC (μg/ml) Pa H188 abs (P. aeruginosa H187 wt): 6.3 µg/mL (≈ 2.13 µM); MIC (μg/ml) Pa H187 wt (P. aeruginosa H187 wt; H187 wt): 6.3 µg/mL (≈ 2.13 µM); MIC (μg/ml) St C610 abs (S. typhimurium C610 abs; C610 abs): 6.3 µg/mL (≈ 2.13 µM); Hemolytic activity MHC (human erythrocytes; red cells of human, 18 h): 7.8 µg/mL; MIC (μg/ml) S. aureus 623 methR (Staphylococcus aureus; methicillin-resistant clinical strain): 6.3 µg/mL (≈ 2.13 µM); MIC (μg/ml) S. aureus 622 wt (Staphylococcus aureus; wild type strain): 6.3 µg/mL (≈ 2.13 µM) |
